According to ChEMBL document CHEMBL5331060, “Bisindole natural products: A vital source for the development of new anticancer drugs” (Eur J Med Chem, 2022):
≈ marks a conversion by molar mass, not a printed value. Each block holds one compound with its values, some of them ahead of it.

Columns and labels:
Assay type in all cases: functional, cell-based
[1] = tested on: B16; test: Antiproliferative activity against B16 cells assessed as inhibition of cell growth by MTT assay; conditions: Mus musculus
[2] = tested on: NCI-H460; test: Antiproliferative activity against human NCI-H460 cells assessed as inhibition of cell growth by MTT assay
[3] = tested on: CCRF-CEM; test: Antiproliferative activity against human CCRF-CEM cells assessed as inhibition of cell growth by MTT assay
[4] = Antiproliferative activity against vincristine-resistant human KB cells assessed as inhibition of cell growth
[5] = tested on: HCT-116; test: Antiproliferative activity against human HCT-116 cells assessed as inhibition of cell growth
[6] = tested on: A549; test: Antiproliferative activity against human A549 cells assessed as inhibition of cell growth
[7] = tested on: HT-29; test: Antiproliferative activity against human HT-29 cells assessed as inhibition of cell growth
[8] = tested on: PC-3; test: Antiproliferative activity against human PC-3 cells assessed as inhibition of cell growth
[9] = tested on: MDA-MB-231; test: Antiproliferative activity against human MDA-MB-231 cells assessed as inhibition of cell growth
[10] = tested on: MCF7; test: Antiproliferative activity against human MCF7 cells assessed as inhibition of cell growth
[11] = tested on: KB; test: Antiproliferative activity against vincristine-sensitive human KB cells assessed as inhibition of cell growth
[12] = tested on: A549; test: Antiproliferative activity against human A549 cells assessed as inhibition of cell growth incubated for 72 hrs by MTT assay; conditions: A549, 72 h, pooled result: one value given for 8 cell lines, strains, targets or settings
[13] = Antiproliferative activity against vincristine-resistant human KB cells assessed as inhibition of cell growth incubated for 72 hrs by MTT assay
[14] = tested on: PANC-1; test: Antiproliferative activity against human PANC-1 cells assessed as inhibition of cell growth incubated for 24 hrs by FMCA assay; conditions: PANC-1, 24 h

SMILES: C/C=C1/CN2CC[C@]34C(=C(CN5c6ccccc6[C@@]67CCN8CCC[C@]9(CC[C@]56[C@H](C(=O)OC)C9)[C@H]87)[C@H]1C[C@H]23)Nc1ccccc14
IC50 [4]: 1300 nM | IC50 [5]: 1300 nM | IC50 [6]: 1300 nM | IC50 [7]: 1300 nM | IC50 [8]: 1300 nM | IC50 [9]: 1300 nM | IC50 [10]: 1300 nM | IC50 [11]: 1300 nM

SMILES: c1ccc2c(C3(c4c[nH]c5ccccc45)CCCCC3)c[nH]c2c1
IC50 [12]: 18700 nM

SMILES: O=C1NC(=O)c2c1c1c3ccccc3[nH]c1c1[nH]c3cc(O)ccc3c21
IC50 [13]: 2.28 µg/mL (≈ 6.68 µM)

Second part, the compound after the results:

IC50 [1]: 5 µg/mL (≈ 11.4 µM) | IC50 [2]: 12 µg/mL (≈ 27.4 µM) | IC50 [3]: 4 µg/mL (≈ 9.13 µM)
SMILES: COC(=O)c1[nH]cc2c1[C@]1(CN(C)c3ccc(Cl)cc31)c1[nH]c3ccc(Cl)cc3c1-2

IC50 [14]: 68000 nM
SMILES: O=C1NCc2c1c1c3ccc(O)cc3[nH]c1c1[nH]c3ccccc3c21
